Test results: patent US20240150396A1 (The Texas A&M University System, priority 2021, published 2024)
“And” between values parts separate entries of the source, which are not always exact repeats. Equal entries are not always repeated. Where two headings read alike, the source gives them in different places.

Experiments:
[1] = system: T. cruzi epimastigotes (strain Y); assay: Growth of axenic cultures of T. cruzi epimastigotes; conditions: epimastigotes
[2] = molecular target: human cathepsin S (Homo sapiens (Human), UniProt P25774); conditions: Ref. 32; read-out: apparent IC50 Human Cathepsin S; cited from earlier work
[3] = Thiolation of inhibitors with glutathione, LCMS; format: physicochemical; conditions: 1 mM glutathione, 0.5 mM compound, Tris pH 8.0, 10% DMSO, room temperature
Procedure: Samples were analyzed by HPLC-MS (as described above) by injecting 0.01 mL aliquots onto a Luna […] C18(2) 100 Å, 4.6 mm, 50 mm column (Phenomenex) using the HPLC method described in the chemistry section at 0-6 h time points. […] Integration of the chromatographic peaks of the inhibitors and their GSH adducts at each time point was used to determine the rate of GSH adduct formation.

[4] = system: T. cruzi epimastigotes (strain Y); conditions: Ndao et al. (2014), read-out: trypanocidal activity EC50; cited from earlier work
[5] = system: T. b. brucei bloodstream forms; assay: Growth of axenic cultures of T. b. brucei bloodstream forms (BSFs); conditions: read-out: EC50 T. b. brucei BSF; axenic culture
Procedure: Selected cruzain inhibitors were evaluated in axenic cell cultures of T. b. brucei and T. cruzi. Procyclic trypomastigotes of T. b. brucei (ATCC PRA-381) were grown in the SDM-79 medium at 26° C., and bloodstream forms (ATCC PRA-383) were grown at 37° C. in the HMI-9 medium at 5% C02. […] Both forms of T. b. brucei and T. cruzi were grown in media containing 10% fetal bovine serum (FBS) and penicillin/streptomycin (50 U mL^−1). […] Control samples contained equal amounts of DMSO. T. b. brucei and T. cruzi (5 mL in flask cultures) were seeded at ˜3×10^6 cells and diluted daily, maintaining a mid-log growth phase for up to 120 h. […] After each cell dilution, fresh compound or an equal volume of DMSO (control samples) was supplemented into the cultures, while maintaining a constant concentration of each inhibitor. Cell counts were scored using a Z2 Coulter Counter.
In vitro Cell Assays. Bloodstream form T. b. brucei strain SM427 was grown in HM1-9 medium that included fetal bovine serum (10%) and antibiotics (100 U/mL penicillin-streptomycin, Gibco™). Inhibitors dissolved in 100% (v/v) DMSO stock solutions were added at final concentrations of 0.5-20 μM (final concentrations of DMSO were <1% (v/v)). T. b. brucei were seeded at ˜1×10^6 cells at 37° C., and diluted daily to maintain a log phase of growth for up to 96 h. […] After each dilution, the cell cultures were supplemented with inhibitor or DMSO (control) to keep concentrations constant. Cell density was determined and graphed as previously reported.^36 Trypanosomes were quantified using a Z2 Coulter Counter, and values of EC50 were determined after 3-4 days of treatment by the interpolation method of Huber and Koella.^37

[6] = system: human dermal fibroblasts; assay: Human cell toxicity, resazurin viability; format: cell-based
How it was run: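 Primary human dermal fibroblasts, 2400 cells/well, exposed in duplicate to inhibitors at final 0.001-0.1 mM in 1% DMSO (1% DMSO control) for 48 h at 37 °C. Resazurin then added and viability read by fluorescence (544/590 nm) after further 24 h.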

[7] = system: C2C12 mouse cardiomyoblast cell line; assay: Host cell cytotoxicity in the T. cruzi infection model; format: cell-based; conditions: host cardiomyoblasts; read-out: C2C12 Cytotoxicity CC50
How it was run: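 C2C12 murine cardiomyoblasts infected with T. cruzi were incubated with compound 48 h at 37 °C, fixed in 2% PFA and stained with 5 μg/ml DAPI. Automated microscopy imaging quantified host cells and parasites separately; host cytotoxicity derived as CC50.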

[8] = system: T. b. brucei procyclic forms; assay: Growth of axenic cultures of T. b. brucei procyclic forms (PCFs); format: cell-based, Trypanosoma brucei brucei; conditions: axenic culture; read-out: EC50 T. b. brucei PCF
[9] = system: T. cruzi (Ca-I/72) in C2C12 murine cardiomyoblasts; assay: T. cruzi-infected murine cardiomyoblasts (C2C12); format: cell-based, Trypanosoma cruzi; conditions: C2C12 murine cardiomyoblasts, read-out: EC50 T. cruzi-infected cardiomyoblasts
How it was run: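 Infected-host-cell imaging assay: inhibitor, 3-fold dilutions topping at 10 μM, was added to C2C12 murine cardiomyoblasts infected with 10^3 or 10^4 Ca-I/72 parasites for 2 days at 37° C. DAPI-stained fixed wells were imaged to count parasites and host cells separately, yielding antiparasitic EC50 and cytotoxic CC50.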

Sequence of human cathepsin S (P25774 115-331): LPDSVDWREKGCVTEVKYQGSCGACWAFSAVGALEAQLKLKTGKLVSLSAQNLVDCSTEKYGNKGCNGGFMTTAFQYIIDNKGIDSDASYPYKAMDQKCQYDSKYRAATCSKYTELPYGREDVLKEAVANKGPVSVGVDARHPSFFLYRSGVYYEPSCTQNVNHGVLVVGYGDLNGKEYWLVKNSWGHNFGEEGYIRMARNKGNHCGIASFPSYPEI

CN1CCN(C(=O)N[C@@H](Cc2ccccc2)C(=O)N[C@H](/C=C/S(=O)(=O)c2ccccc2)CCc2ccccc2)CC1 [Compound K11777, reference compound]
T. cruzi axenic culture EC50 [1]: poorly effective | EC50 ([1]; read-out: T. cruzi axenic culture EC50): ~60 µM | IC50 [2]: 0.0006 µM | Rate of Thiolation, k [3]: 0.00467 ± 0.0067 M⁻¹ s⁻¹ | EC50 [4]: 10 to 100 µM | EC50 [5]: 0.09 ± 0.06 µM | EC50 [6]: 70 µM | toxicity in human dermal fibroblasts, concentration ([6]; concentration at which toxicity was or was not seen): 70 µM | CC50 ([6]; human dermal fibroblasts, read-out: Human Cell Cytotoxicity CC50): 60 to 100 µM | CC50 [7]: > 10 µM | EC50 [8]: 2 µM and 2.3 µM and 1.7 µM | EC50 ([9]; listed as K777): 0.038 ± 0.009 µM | EC50 [9]: 0.7 µM
